{"source": "patent US20240277698A1", "about": "“METHODS OF USING ALDOSTERONE SYNTHASE INHIBITORS” (CINCOR PHARMA, INC., priority 2021, published 2024)", "key": {"[1]": {"assay": "Metformin drug-drug interaction study: safety (TEAEs)", "conditions": "for Any TEAEs leading to death, number of events / Any TEAEs leading to death, subjects: Treatment A = 1000 mg metformin alone (N = 26), Treatment B = 1000 mg metformin + 10 mg Compound 1 (N = 27)", "method": "Safety was assessed throughout the study based on adverse events (AEs), physical examinations, weight measurements, electrocardiograms (ECGs), vital signs assessments (seated and orthostatic), and clinical laboratory evaluations.\nThe following safety assessments were performed: • AEs and SAEs; • Clinical laboratory test assessments; • Vital signs including heart rate, blood pressure (BP) (including orthostatic BP when indicated), respiration rate, and temperature; • 12-lead ECGs; • Physical examinations; and • Height, weight, and BMI.\nSafety analyses were performed throughout the study based on the Safety Population. Safety was evaluated through assessments of AEs, physical examinations, ECGs, weight measurements, vital signs assessments (seated and orthostatic), and clinical laboratory evaluations.\nA TEAE was defined as an AE that emerged, having been absent prior to the study, or an AE that worsened in severity after the first dose of any drug in this study. TEAEs were summarized by MedDRA SOC and PT for each treatment and overall. The number and percentage of subjects experiencing TEAEs and the number of TEAEs were tabulated. Subjects reporting more than 1 AE for a given MedDRA PT were counted only once for that term using the most severe incident. Subjects reporting more than 1 type of event within a SOC were counted only once for that SOC. The Safety Population was used for all the safety analyses."}, "[2]": {"assay": "Metformin drug-drug interaction study: urine pharmacokinetics of metformin", "type": "in vivo, human"}, "[3]": {"conditions": "Treatment B: single 1000 mg metformin + 10 mg Compound 1"}, "[4]": {"assay": "clinical", "conditions": "human, in vivo, 1000 mg; for AUC(0-inf): Metformin plasma AUC0-inf; for AUC(0-t): Metformin plasma AUC0-t"}, "[5]": {"target": "aldosterone synthase (Homo sapiens, UniProt P19099)", "sequence (P19099 25-503, species assumed)": "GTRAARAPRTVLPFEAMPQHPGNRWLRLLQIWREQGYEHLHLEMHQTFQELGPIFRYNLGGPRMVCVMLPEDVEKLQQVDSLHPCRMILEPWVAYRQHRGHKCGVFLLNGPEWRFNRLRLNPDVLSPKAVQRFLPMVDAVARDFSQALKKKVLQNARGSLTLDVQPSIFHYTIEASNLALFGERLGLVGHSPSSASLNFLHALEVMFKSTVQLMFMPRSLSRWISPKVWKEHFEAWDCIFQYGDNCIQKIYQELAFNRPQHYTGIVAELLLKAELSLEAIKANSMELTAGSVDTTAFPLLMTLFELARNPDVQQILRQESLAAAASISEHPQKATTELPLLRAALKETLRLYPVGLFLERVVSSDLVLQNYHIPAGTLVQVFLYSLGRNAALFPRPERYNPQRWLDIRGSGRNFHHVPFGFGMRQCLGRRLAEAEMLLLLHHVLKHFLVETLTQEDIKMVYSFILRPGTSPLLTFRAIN", "conditions": "cited from earlier work"}, "[6]": {"conditions": "Treatment B: 10 mg Compound 1 with single 1000 mg metformin"}, "[7]": {"conditions": "Treatment A: single 1000 mg metformin alone"}, "[8]": {"conditions": "Treatment B: single 1000 mg metformin + 10 mg Compound 1"}}, "note": "Read-outs that look alike come from different tables or passages of the source."}
{"smiles": "CCC(=O)NC1CCCc2c(-c3ccc4c(c3)CCC(=O)N4C)cncc21", "note": "(stereo not drawn) [Compound 1, N-(4-(1-methyl-2-oxo-1,2,3,4-tetrahydroquinolin-6-yl)-5,6,7,8-tetrahydroisoquinolin-8-yl)propionamide]", "values": [{"measurement": "Any TEAEs leading to death, number of events", "setting": "[1]", "value": 0, "unit": "e"}, {"measurement": "Any TEAEs leading to death, subjects", "setting": "[1]", "value": "0 (0.0) n (%)"}, {"measurement": "effect on metformin renal clearance", "setting": "[2]; 10 mg Compound 1 2 hours prior to metformin dosing", "value": "did not result in a reduction"}, {"measurement": "Compound 1 plasma AUC%extrap, Mean (SD)", "setting": "[6]", "value": "9.9 (5.2) %"}, {"measurement": "Compound 1 plasma λz, Mean (SD)", "setting": "[6]", "value": "0.033 (0.008) 1/h"}, {"measurement": "Tmax", "setting": "human, plasma", "value": 1.3, "unit": "h"}, {"measurement": "AUC(0-t)", "setting": "human, plasma, Compound 1 plasma AUC0-24, Mean (SD), Treatment B: 10 mg Compound 1 with single 1000 mg metformin", "value": 1660, "unit": "ng·h/mL"}, {"measurement": "AUC(0-t)", "setting": "human, plasma, Compound 1 plasma AUC0-72, Mean (SD), Treatment B: 10 mg Compound 1 with single 1000 mg metformin", "value": 2870, "unit": "ng·h/mL"}]}
{"smiles": "CN(C)C(=N)N=C(N)N", "note": "[metformin]", "values": [{"measurement": "Any TEAEs leading to death, number of events", "setting": "[1]", "value": 0, "unit": "e"}, {"measurement": "Any TEAEs leading to death, subjects", "setting": "[1]", "value": "0 (0.0) n (%)"}, {"measurement": "subjects experiencing diarrhoea", "setting": "[1]; human, in vivo", "value": "3 (11.5%)"}, {"measurement": "subjects experiencing nausea", "setting": "[1]; human, in vivo", "value": "1 (3.7%)"}, {"measurement": "subjects experiencing upper abdominal pain", "setting": "[1]; human, in vivo", "value": "One (3.7%)"}, {"measurement": "Metformin plasma AUC0-t, Geom LS Mean", "setting": "[3]", "value": 10683.45, "unit": "ng·h/mL"}, {"measurement": "AUC(0-inf)", "setting": "[4]; Geom LS Mean", "value": 11100, "unit": "ng·h/mL"}, {"measurement": "AUC(0-inf)", "setting": "[4]; Mean (SD)", "value": 11200, "unit": "ng·h/mL"}, {"measurement": "AUC(0-t)", "setting": "[4]; Geom LS Mean", "value": 11000, "unit": "ng·h/mL"}, {"measurement": "AUC(0-t)", "setting": "[4]; Mean (SD)", "value": 11200, "unit": "ng·h/mL"}, {"measurement": "metformin dose excreted in the urine", "setting": "[2]; 1000 mg metformin, presence and absence of Compound 1", "value": "approximately 30%"}, {"measurement": "Metformin urine Fe0-3, Mean (CV %)", "setting": "[2]; [7]", "value": "11.76 (33.0) %"}, {"measurement": "Metformin urine Fe0-6, Mean (CV %)", "setting": "[2]; [7]", "value": "21.50 (27.2) %"}, {"measurement": "Metformin urine Fe0-9, Mean (CV %)", "setting": "[2]; [7]", "value": "25.40 (28.1) %"}, {"measurement": "Metformin urine Fe0-12, Mean (CV %)", "setting": "[2]; [7]", "value": "27.42 (26.2) %"}, {"measurement": "Metformin urine Fe0-18, Mean (CV %)", "setting": "[2]; [7]", "value": "29.11 (25.6) %"}, {"measurement": "Metformin urine Fe0-24, Mean (CV %)", "setting": "[2]; [7]", "value": "29.82 (25.1) %"}, {"measurement": "Metformin urine Fe0-30, Mean (CV %)", "setting": "[2]; [7]", "value": "30.21 (24.9) %"}, {"measurement": "Metformin urine Fe0-36, Mean (CV %)", "setting": "[2]; [7]", "value": "30.50 (24.7) %"}, {"measurement": "Metformin urine Fe0-48, Mean (CV %)", "setting": "[2]; [7]", "value": "30.90 (24.5) %"}, {"measurement": "Metformin urine Fe0-72, Mean (CV %)", "setting": "[2]; [7]", "value": "31.23 (24.2) %"}, {"measurement": "Metformin urine Fe0-3, Mean (CV %)", "setting": "[2]; [8]", "value": "10.47 (36.6) %"}, {"measurement": "Metformin urine Fe0-6, Mean (CV %)", "setting": "[2]; [8]", "value": "19.06 (32.4) %"}, {"measurement": "Metformin urine Fe0-9, Mean (CV %)", "setting": "[2]; [8]", "value": "23.11 (33.8) %"}, {"measurement": "Metformin urine Fe0-12, Mean (CV %)", "setting": "[2]; [8]", "value": "25.07 (32.5) %"}, {"measurement": "Metformin urine Fe0-18, Mean (CV %)", "setting": "[2]; [8]", "value": "26.52 (31.3) %"}, {"measurement": "Metformin urine Fe0-24, Mean (CV %)", "setting": "[2]; [8]", "value": "27.21 (30.6) %"}, {"measurement": "Metformin urine Fe0-30, Mean (CV %)", "setting": "[2]; [8]", "value": "27.62 (30.3) %"}, {"measurement": "Metformin urine Fe0-36, Mean (CV %)", "setting": "[2]; [8]", "value": "27.87 (30.0) %"}, {"measurement": "Metformin urine Fe0-48, Mean (CV %)", "setting": "[2]; [8]", "value": "28.25 (29.4) %"}, {"measurement": "Metformin urine Fe0-72, Mean (CV %)", "setting": "[2]; [8]", "value": "28.72 (28.9) %"}]}
{"smiles": "N#Cc1ccc([C@H]2CCc3cncn32)c(F)c1", "note": "[LCI1699]", "values": [{"measurement": "specificity for aldosterone synthase", "setting": "[5]; clinical trials by Novartis, discontinued", "value": "lack of specificity for aldosterone synthase"}, {"measurement": "ACTH associated with aldosterone reductions", "setting": "[5]; previously observed", "value": "corresponding increase in ACTH"}, {"measurement": "increase in predose 11-deoxycorticosterone levels", "setting": "[5]; previously observed", "value": "up to 10 fold"}]}
